Experimental data: patent publication US9085576B2 (AMGEN INC., priority 2013, dated 2015)
pIC50: −log10 of the molar value. Counter-ions that a name gives are not always drawn.

Target: Cathepsin D (Cat D) (Homo sapiens (Human), UniProt P07339)
Assay: In vitro enzymatic Cathepsin D (Cat D) FRET assay
Format: biochemical
Conditions: read-out: CatD IC50

Cathepsin D (Cat D), sequence (P07339 65-412, species assumed): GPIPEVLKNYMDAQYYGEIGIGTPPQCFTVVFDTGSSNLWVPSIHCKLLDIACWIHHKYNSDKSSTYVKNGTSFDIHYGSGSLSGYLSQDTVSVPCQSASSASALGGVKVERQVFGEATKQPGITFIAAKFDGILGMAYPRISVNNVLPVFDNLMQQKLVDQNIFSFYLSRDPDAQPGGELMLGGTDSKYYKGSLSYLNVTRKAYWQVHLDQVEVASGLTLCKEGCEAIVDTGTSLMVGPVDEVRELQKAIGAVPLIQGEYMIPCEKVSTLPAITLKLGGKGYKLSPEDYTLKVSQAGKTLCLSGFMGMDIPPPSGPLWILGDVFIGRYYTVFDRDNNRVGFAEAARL

## Cc1cc(OCC#CC(C)(C)O)cnc1C(=O)Nc1ccc(F)c(C2(C)N=C(N)O[C@H]3C[C@H]32)c1 (mixture of isomers) [Example 29, N-(3-([1(R,S),5(S,R),6(R,S)]-3-amino-5-methyl-2-oxa-4-azabicyclo[4.1.0]hept-3-en-5-yl)-4-fluorophenyl)-5-((4-hydroxy-4-methylpent-2-yn-1-yl)oxy)-3-methylpicolinamide]
  pIC50: 3.33

## Cc1cc(NC(=O)c2ccc(Cl)cn2)cc([C@@]2(C(F)F)N=C(N)O[C@@H]3C[C@@H]32)c1F (racemic) [Example 30, N-(3-([(1R,S),(5S,R),(6R,S)]-3-amino-5-(difluoromethyl)-2-oxa-4-azabicyclo[4.1.0]hept-3-en-5-yl)-4-fluoro-5-methylphenyl)-5-chloropicolinamide]
  pIC50: 3.33

## COc1c(F)cc(NC(=O)c2ccc(Cl)cn2)cc1[C@@]1(CF)N=C(N)O[C@@H]2C[C@@H]21 (racemic) [Example 31, N-(3-([(1R,S),(5S,R),(6R,S)]-3-amino-5-(fluoromethyl)-2-oxa-4-azabicyclo[4.1.0]hept-3-en-5-yl)-5-fluoro-4-methoxyphenyl)-5-chloropicolinamide]
  pIC50: 3.47

## N#Cc1ccc(C(=O)Nc2ccc(F)c([C@]3(C(F)F)N=C(N)O[C@H]4C[C@H]43)c2)nc1 (racemic) [Example 59, N-(3-([1(R,S),5(S,R),6(R,S)]-3-amino-5-(difluoromethyl)-2-oxa-4-azabicyclo[4.1.0]hept-3-en-5-yl)-4-fluorophenyl)-5-cyanopicolinamide compound]
  pIC50: 3.05

## N#Cc1cnc(C(=O)Nc2ccc(F)c([C@]3(C(F)F)N=C(N)O[C@H]4C[C@H]43)c2)c(Cl)c1 (racemic) [Example 62, N-(3-([1(R,S),5(S,R),6(R,S)]-3-amino-5-(difluoromethyl)-2-oxa-4-azabicyclo[4.1.0]hept-3-en-5-yl)-4-fluorophenyl)-3-chloro-5-cyanopicolinamide]
  pIC50: 2.96

## N#Cc1ccc(C(=O)Nc2cnc(F)c([C@]3(C(F)F)N=C(N)O[C@H]4C[C@H]43)c2)nc1 (racemic) [Example 75, N-(5-([1(R,S),5(S,R),6(R,S)]-3-amino-5-(difluoromethyl)-2-oxa-4-azabicyclo[4.1.0]hept-3-en-5-yl)-6-fluoropyridin-3-yl)-5-cyanopicolinamide]
  pIC50: 3.46

## N#Cc1ccc(C(=O)Nc2ccc(Cl)c([C@@]3(C(F)F)N=C(N)O[C@@H]4C[C@@H]43)c2)nc1 (racemic) [Example 98, N-(3-(((1R,S), (5S,R), (6R,S))-3-amino-5-(difluoromethyl)-2-oxa-4-azabicyclo[4.1.0]hept-3-en-5-yl)-4-chlorophenyl)-5-cyanopicolinamide trifluoroacetate]
  pIC50: 2.94

## N#Cc1ccc(C(=O)Nc2cc(F)c(F)c([C@@]3(C(F)F)N=C(N)O[C@@H]4C[C@@H]43)c2)nc1 (stereo in doubt) [Example 109, N-(3-((1R,5S,6R)-3-amino-5-(difluoromethyl)-2-oxa-4-azabicyclo[4.1.0]hept-3-en-5-yl)-4,5-difluorophenyl)-5-cyanopicolinamide]
  pIC50: < 3.40

## N#Cc1ccc(C(=O)Nc2cc(F)c(F)c([C@@]3(CF)N=C(N)O[C@@H]4C[C@@H]43)c2)nc1 [Example 37, N-(3-((1R,5S,6R)-3-amino-5-(fluoromethyl)-2-oxa-4-azabicyclo[4.1.0]hept-3-en-5-yl)-4,5-difluorophenyl)-5-cyanopicolinamide]
  pIC50: 3.44

## N#Cc1ccc(C(=O)Nc2cc(F)c(F)c([C@]3(CF)N=C(N)O[C@H]4C[C@H]43)c2)nc1 [Example 38, N-(3-((1S,55,6S) 3-amino-5-(fluoromethyl)-2-oxa-4-azabicyclo[4.1.0]hept-3-en-5-yl)-4,5-difluorophenyl)-5-cyanopicolinamide]
  pIC50: 2.58

## COc1ccc(C(=O)Nc2cc(F)c(F)c([C@@]3(CF)N=C(N)O[C@@H]4C[C@@H]43)c2)nc1 [Example 41, N-(3-((1R,5S,6R)-3-amino-5-(fluoromethyl)-2-oxa-4-azabicyclo[4.1.0]hept-3-en-5-yl)-4,5-difluorophenyl)-5-methoxypicolinamide]
  pIC50: 3.62

## COCc1cc(Cl)cnc1C(=O)Nc1ccc(F)c([C@@]2(C(F)F)N=C(N)O[C@@H]3C[C@@H]32)c1 [Example 42, N-(3-((1R,5S,6R)-3-amino-5-(difluoromethyl)-2-oxa-4-azabicyclo[4.1.0]hept-3-en-5-yl)-4-fluorophenyl)-5-chloro-3-(methoxymethyl) picolinamide]
  pIC50: 3.13

## N#Cc1ccc(C(=O)Nc2ccc(F)c([C@]3(C(F)F)N=C(N)O[C@H]4C[C@H]43)c2)nc1 [Example 65, N-(3-((1S,5R,6S)-3-amino-5-(difluoromethyl)-2-oxa-4-azabicyclo[4.1.0]hept-3-en-5-yl)-4-fluorophenyl)-5-cyanopicolinamide]
  pIC50: < 3.40

## N#Cc1cnc(C(=O)Nc2ccc(F)c([C@]3(C(F)F)N=C(N)O[C@H]4C[C@H]43)c2)c(Cl)c1 [Example 67, N-(3-((1S,5R,6S)-3-amino-5-(difluoromethyl)-2-oxa-4-azabicyclo[4.1.0]hept-3-en-5-yl)-4-fluorophenyl)-3-chloro-5-cyanopicolinamide]
  pIC50: 2.89

## N#Cc1ccc(C(=O)Nc2ccc(Cl)c([C@]3(C(F)F)N=C(N)O[C@H]4C[C@H]43)c2)nc1 [Example 94, N-(3-((1S,5R,6S)-3-amino-5-(difluoromethyl)-2-oxa-4-azabicyclo[4.1.0]hept-3-en-5-yl)-4-chlorophenyl)-5-cyanopicolinamide]
  pIC50: 2.72

## NC1=N[C@@](c2cc(NC(=O)c3ccc(Cl)cn3)cc(F)c2F)(C(F)F)[C@H]2C[C@H]2O1 [Example 107, N-(3-((1R,5S,6R)-3-amino-5-(difluoromethyl)-2-oxa-4-azabicyclo[4.1.0]hept-3-en-5-yl)-4,5-difluorophenyl)-5-chloropicolinamide]
  pIC50: 3.67

## NC1=N[C@](c2cc(NC(=O)c3ccc(Cl)cn3)cc(F)c2F)(C(F)F)[C@@H]2C[C@@H]2O1 [Example 108, N-(3-((1S,5R,6S)-3-amino-5-(difluoromethyl)-2-oxa-4-azabicyclo[4.1.0]hept-3-en-5-yl)-4,5-difluorophenyl)-5-chloropicolinamide]
  pIC50: 3.33

## COc1cnc(C(=O)Nc2cc(F)c(F)c([C@@]3(C(F)F)N=C(N)O[C@@H]4C[C@@H]43)c2)cn1 [Example 112, N-(3-((1R,5S,6R)-3-amino-5-(difluoromethyl)-2-oxa-4-azabicyclo[4.1.0]hept-3-en-5-yl)-4,5-difluorophenyl)-5-methoxypyrazine-2-carboxamide]
  pIC50: 2.38

## N#Cc1ccc(C(=O)Nc2cc(F)c(F)c([C@@]3(C(F)F)N=C(N)O[C@@H]4C[C@@H]43)c2)nc1 [Example 113, N-(3-((1R,5S,6R)-3-amino-5-(difluoromethyl)-2-oxa-4-azabicyclo[4.1.0]hept-3-en-5-yl)-4,5-difluorophenyl)-5-cyanopicolinamide]
  pIC50: < 3.21

## NC1=N[C@@](c2cc(NC(=O)c3ccc(Br)cn3)cc(F)c2F)(C(F)F)[C@H]2C[C@H]2O1 [Example 116, N-(3-((1R,5S,6R)-3-amino-5-(difluoromethyl)-2-oxa-4-azabicyclo[4.1.0]hept-3-en-5-yl)-4,5-difluorophenyl)-5-bromopicolinamide]
  pIC50: 4.09

## Cc1cc(NC(=O)c2ccc(Cl)cn2)cc([C@@]2(C(F)F)N=C(N)O[C@@H]3C[C@@H]32)c1F [Example 121, N-(3-((1R,5S,6R)-3-amino-5-(difluoromethyl)-2-oxa-4-azabicyclo[4.1.0]hept-3-en-5-yl)-4-fluoro-5-methylphenyl)-5-chloropicolinamide]
  pIC50: 3.69

## Cc1cc(NC(=O)c2ccc(Cl)cn2)cc([C@@]2(C(F)F)N=C(N)O[C@@H]3C[C@@H]32)c1F [Example 123, N-(3-((1R,5S,6R)-3-amino-5-(difluoromethyl)-2-oxa-4-azabicyclo[4.1.0]hept-3-en-5-yl)-4-fluoro-5-methylphenyl)-5-chloropicolinamide]
  pIC50: 3.59

## Cc1cc(NC(=O)c2ccc(Cl)cn2)cc([C@]2(C(F)F)N=C(N)O[C@H]3C[C@H]32)c1F [Example 124, N-(3-((1 S,5R,6S)-3-amino-5-(difluoromethyl)-2-oxa-4-azabicyclo[4.1.0]hept-3-en-5-yl)-4-fluoro-5-methylphenyl)-5-chloropicolinamide]
  pIC50: 2.91

## Cc1cc(C#N)cnc1C(=O)Nc1cc(C)c(F)c([C@@]2(C(F)F)N=C(N)O[C@@H]3C[C@@H]32)c1 [Example 132, N-(3-((1R,5S,6R)-3-amino-5-(difluoromethyl)-2-oxa-4-azabicyclo[4.1.0]hept-3-en-5-yl)-4-fluoro-5-methylphenyl)-5-cyano-3-methylpicolinamide]
  pIC50: 3.14

## COc1c(F)cc(NC(=O)c2ccc(Cl)cn2)cc1[C@@]1(CF)N=C(N)O[C@@H]2C[C@@H]21 [Example 145, N-(3-((1R,5S,6R)-3-amino-5-(fluoromethyl)-2-oxa-4-azabicyclo[4.1.0]hept-3-en-5-yl)-5-fluoro-4-methoxyphenyl)-5-chloropicolinamide]
  pIC50: 3.66

## COc1c(F)cc(NC(=O)c2ccc(Cl)cn2)cc1[C@]1(CF)N=C(N)O[C@H]2C[C@H]21 [Example 146, N-(3-((1S,5R,6S)-3-amino-5-(fluoromethyl)-2-oxa-4-azabicyclo[4.1.0]hept-3-en-5-yl)-5-fluoro-4-methoxyphenyl)-5-chloropicolinamide]
  pIC50: 3.11

## C#C[C@@H](C)Oc1cnc(C(=O)Nc2ccc(F)c([C@@]3(C(F)F)N=C(N)O[C@@H]4C[C@@H]43)c2)cn1 [Example 148, N-(3-((1R,5S,6R)-3-amino-5-(difluoromethyl)-2-oxa-4-azabicyclo[4.1.0]hept-3-en-5-yl)-4-fluorophenyl)-5-((R)-but-3-yn-2-yloxy)pyrazine-2-carboxamide]
  pIC50: 3.07

## NC1=N[C@@](c2cc(NC(=O)c3coc(CF)n3)ccc2F)(C(F)F)[C@H]2C[C@H]2O1 [Example 168, N-(3-((1R,5S,6R)-3-amino-5-(difluoromethyl)-2-oxa-4-azabicyclo[4.1.0]hept-3-en-5-yl)-4-fluorophenyl)-2-(fluoromethyl)oxazole-4-carboxamide]
  pIC50: 4.25

## C#CCOc1ccc(C(=O)Nc2ccc(F)c([C@@]3(CF)N=C(N)O[C@@H]4C[C@@H]43)c2)nc1 [Example 205, N-(3-((1R,5S,6R)-3-amino-5-(fluoromethyl)-2-oxa-4-azabicyclo[4.1.0]hept-3-en-5-yl)-4-fluorophenyl)-5-(prop-2-yn-1-yloxy)picolinamide]
  pIC50: 3.09
